Reference: patent US8389523B2, “Substituted quinoxaline and an agrochemical composition thereof” (Kumiai Chemical Industry Co., Ltd., priority 2007, dated 2013)

Assays:
Format in all cases: in vivo
Set-up in all cases: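 grade 0 to 5 of growth suppression where 5 is 90% or more and 0 below 10%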
[1] = tested on: Monochoria vaginalis (Burm. f.) Presl var. plantaginea (Roxb.) Solms-Laub.; experiment: Herbicidal effects in paddy field soil treatment (Test Example 1); settings: paddy field soil treatment; 1000 g of the active ingredient per hectare; wettable powder added dropwise on water surface; 21st day after treatment
Method in brief: (§1)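 Application rate 1000 g a.i./ha, delivered as water-diluted wettable powder onto flooded (3 cm) paddy soil one day after sowing. Plants kept in a greenhouse and evaluated for herbicidal effect on day 21 post-treatment.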

[2] = tested on: Echinochloa oryzicola Vasing; experiment: as above; settings: paddy field soil treatment; 1000 g of the active ingredient per hectare; wettable powder added dropwise on water surface; 21st day after treatment
Method in brief: as §1

[3] = tested on: Scirpus juncoides Roxb. var. ohwianus. T. Koyama; experiment: as above; settings: paddy field soil treatment; 1000 g of the active ingredient per hectare; wettable powder added dropwise on water surface; 21st day after treatment
Method in brief: as §1

[4] = tested on: Abutilon theophrasti medicus; experiment: Herbicidal effects in upland field foliar treatment (Test Example 3); settings: criteria of Table 138; for herbicidal effects on Abutilon theophrasti medicus: 1000 g of the active ingredient per hectare, 14th day after the treatment, wettable powder
Method in brief: (§2)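 Foliar spray of diluted wettable powder, 1000 g a.i./ha in 1000 L/ha, onto two-week-old greenhouse-grown seedlings in upland field soil. Plants kept in the greenhouse, with effect rated on a criteria scale at day 14.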

[5] = tested on: Echinochloa crus-galli (L.) P. Beauv. var. crus-galli; experiment: as above; settings: criteria of Table 138; for herbicidal effects on Echinochloa crus-galli (L.) P. Beauv. var. crus-galli: 1000 g of the active ingredient per hectare, 14th day after the treatment, wettable powder
Method in brief: as §2

Amaranthus viridis L. [6] = experiment: as above; settings: criteria of Table 138; for herbicidal effects on Amaranthus viridis L.: 1000 g of the active ingredient per hectare, 14th day after the treatment, wettable powder
Method in brief: as §2

[7] = tested on: Abutilon theophrasti medicus; experiment: Herbicidal effects in upland field soil treatment (Test Example 2); settings: 1000 g active ingredient per hectare, 21st day after treatment, criteria of Table 138
Method in brief: (§3)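 Herbicidal effect graded 21 days after treatment, plants kept in greenhouse. Treatment was a soil-surface spray of wettable powder in water, 1000 g a.i./ha in 1000 L/ha, applied after sowing and covering seeds.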

Amaranthus viridis L. [8] = experiment: as above; settings: 1000 g active ingredient per hectare, 21st day after treatment, criteria of Table 138
Method in brief: as §3

[9] = 1000 g active ingredient per hectare, 14th day after treatment

Compound	Herbicidal effects index, Monochoria vaginalis (Burm. f.) Presl var. plantaginea (Roxb.) Solms-Laub. [1]	Herbicidal effects index, Echinochloa oryzicola Vasing [2]	Herbicidal effects index, Scirpus juncoides Roxb. var. ohwianus. T. Koyama [3]	herbicidal effects on Abutilon theophrasti medicus [4]	herbicidal effects on Echinochloa crus-galli (L.) P. Beauv. var. crus-galli [5]	herbicidal effects on Amaranthus viridis L. (Amaranthus viridis L. [6])	herbicidal effect (index) on Abutilon theophrasti medicus [7]	herbicidal effect (index) on Amaranthus viridis L. (Amaranthus viridis L. [8])	herbicidal effect (index) on Abutilon theophrasti medicus [4, 9]	herbicidal effect (index) on Echinochloa crus-galli (L.) P. Beauv. var. crus-galli [5, 9]	herbicidal effect (index) on Amaranthus viridis L. (Amaranthus viridis L. [6]; [9])
O=C1CCCC(O)=C1C(=O)c1nc2c(Cl)cccc2n(-c2ccccc2)c1=O [II-190]	5	5	5	5	4	5	5	4			
Cc1ccc(-n2c(=O)c(C(=O)C3=C(O)CCCC3=O)nc3ccccc32)cc1C [II-211]	5	5	5	5	5	5	5	5			
CCOc1cccc(-n2c(=O)c(C(=O)C3=C(O)CCCC3=O)nc3ccccc32)c1 [II-68]	5	5	5	5	5	5	5	5			
Cn1c(=O)c(C(=O)C2=C(O)C3CCC(C3)C2=O)nc2cccnc21 (stereo not shown) [III-5]	5	5	5	5	5	5	5	4			
CC1(C)CCC(=O)C(C(=O)c2nc3cccnc3n(-c3cccc(C(F)(F)F)c3)c2=O)=C1O [IV-40]	5	5	5	5	5	5	5	5			
Cc1cccc(-n2c(=O)c(C(=O)C3=C(O)CCCC3=O)nc3cccnc32)c1 [IV-20]	5	5	5	5	5	5	5	5			
O=C1CCCC(O)=C1C(=O)c1nc2cccnc2n(-c2ccc(Cl)cc2)c1=O [IV-13]	5	5	5	5	5	5	5	5			
Cc1cnc(-n2c(=O)c(C(=O)C3=C(O)CCCC3=O)nc3ccccc32)s1 [I-380]	5	4	5				5	5	5	4	5
